# From ChEMBL document CHEMBL1157512, “Anti-HIV-1 protease activity of lanostane triterpenes from the vietnamese mushroom Ganoderma colossum” (J Nat Prod, 2008)
# Target: Protease (Human immunodeficiency virus 1, UniProt Q9YQ12)
# Assay: Inhibition of recombinant HIV1 protease
# Chain of Protease (Q9YQ12 whole entry): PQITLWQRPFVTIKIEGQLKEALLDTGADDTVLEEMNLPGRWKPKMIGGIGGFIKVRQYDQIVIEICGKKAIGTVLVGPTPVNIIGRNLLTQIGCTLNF
row,SMILES,IC50 [µM]
1,CC(=O)O[C@@H]1C[C@H]([C@H](C)[C@H]2CC=C(C)C(=O)O2)[C@@]2(C)CCC3=C(CC[C@]4(O)C(=C3)C=CC(=O)OC4(C)C)[C@]12C [COLOSSOLACTONE G],9.28
2,CC(=O)O[C@@H]1C[C@H]([C@H](C)[C@@H]2OC(=O)C(C)=C[C@H]2O)[C@@]2(C)CCC3=C(CC[C@@H]4C(=C3)C=CC(=O)OC4(C)C)[C@]12C [COLOSSOLACTONE VIII],58.3
3,COC(=O)CC[C@]1(COC(C)=O)C2=C(CC[C@H]1C(C)(C)O)[C@]1(C)CC[C@H]([C@H](C)[C@H]3CC=C(C)C(=O)O3)[C@@]1(C)CC2 [COLOSSOLACTONE VII],24.7
4,CC(=O)OC[C@]12CC[C@H](O)C(C)(C)[C@@H]1CCC1=C2CC[C@]2(C)[C@@H]([C@H](C)C(O)C/C=C(/C)CO)CC[C@@]12C (stereo partly drawn) [COLOSSOLACTONE A],75.5
5,CC1=CC[C@H]([C@@H](C)[C@H]2CC[C@@]3(C)C4=C(C=C5C=CC(=O)OC(C)(C)[C@@H]5CC4)CC[C@]23C)OC1=O [SCHISANLACTONE A],10.8
6,CC(=O)O[C@@H]1C[C@H]([C@H](C)[C@H]2CC=C(C)C(=O)O2)[C@@]2(C)CCC3=C(CC[C@@H]4C(=C3)C=CC(=O)OC4(C)C)[C@]12C [COLOSSOLACTONE E],15.3
7,COC(=O)CC[C@]1(COC(C)=O)C2=CC[C@]3(C)[C@@H]([C@H](C)[C@@H](C/C=C(/C)C(=O)O)OC(C)=O)CC[C@@]3(C)C2=CC[C@H]1C(C)(C)O [COLOSSOLACTONE VI],> 162
8,COC(=O)CC[C@]1(COC(C)=O)C2=C(CC[C@H]1C(C)(C)O)[C@]1(C)CC[C@H]([C@H](C)[C@@H](C/C=C(/C)C(=O)O)OC(C)=O)[C@@]1(C)CC2 [COLOSSOLACTONE V],14.5
